Laboratory results as given in ChEMBL document CHEMBL1124237, “Linear free energy relationship studies of enzyme active site binding: thymidylate synthase” (J Med Chem, 1988).

Key:
[1] = target: Thymidylate synthase (Mus musculus, UniProt P07607); assay: Inhibitory effect on murine leukemia (L1210) thymidylate synthase
[2] = target: T1, Thymidylate synthase (Lactobacillus casei, UniProt P00469); assay: Inhibitory effect on Lactobacillus casei thymidylate synthase; set-up: species or system Lacticaseibacillus casei
T1 sequence (P00469 whole entry): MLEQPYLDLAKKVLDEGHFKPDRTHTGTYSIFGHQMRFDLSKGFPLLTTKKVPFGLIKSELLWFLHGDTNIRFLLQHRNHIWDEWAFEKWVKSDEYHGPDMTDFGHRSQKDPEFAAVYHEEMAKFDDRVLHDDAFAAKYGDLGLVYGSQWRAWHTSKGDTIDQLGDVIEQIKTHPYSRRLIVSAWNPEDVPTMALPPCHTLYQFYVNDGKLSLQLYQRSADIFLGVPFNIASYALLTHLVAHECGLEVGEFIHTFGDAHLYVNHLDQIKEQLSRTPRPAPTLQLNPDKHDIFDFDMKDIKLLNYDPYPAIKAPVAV

[3] = target: Thymidylate synthase (Homo sapiens, UniProt P04818); assay: Inhibitory effect on human lymphoblast (Molt/4F) thymidylate synthase
Chain of Thymidylate synthase (Homo sapiens, UniProt P04818) (P04818 whole entry): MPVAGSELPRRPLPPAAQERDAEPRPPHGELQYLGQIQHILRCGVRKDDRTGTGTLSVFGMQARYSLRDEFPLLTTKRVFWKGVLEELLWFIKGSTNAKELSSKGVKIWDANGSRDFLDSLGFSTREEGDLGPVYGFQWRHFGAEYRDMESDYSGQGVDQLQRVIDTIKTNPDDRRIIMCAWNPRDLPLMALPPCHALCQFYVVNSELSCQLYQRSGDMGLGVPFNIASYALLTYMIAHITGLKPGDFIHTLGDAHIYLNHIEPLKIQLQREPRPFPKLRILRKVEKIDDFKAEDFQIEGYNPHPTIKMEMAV

Chain of Thymidylate synthase (Mus musculus, UniProt P07607) (P07607 whole entry): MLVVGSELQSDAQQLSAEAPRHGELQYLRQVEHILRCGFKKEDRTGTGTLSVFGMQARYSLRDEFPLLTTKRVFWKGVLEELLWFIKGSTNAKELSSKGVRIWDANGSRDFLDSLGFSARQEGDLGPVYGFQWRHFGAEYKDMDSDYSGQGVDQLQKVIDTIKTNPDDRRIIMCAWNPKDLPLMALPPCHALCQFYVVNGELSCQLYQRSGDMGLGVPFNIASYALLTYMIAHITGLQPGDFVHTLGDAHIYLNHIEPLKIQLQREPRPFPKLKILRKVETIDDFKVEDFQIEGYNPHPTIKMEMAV

Row | SMILES | Ki [1] [µM] | Ki [2] [µM] | Ki [3] [µM]
1 | O=c1[nH]c(=O)n([C@H]2C[C@H](O)[C@@H](COP(=O)(O)O)O2)cc1-c1ccc([N+](=O)[O-])cc1 | 48.3 | 6.42 | –
2 | O=c1[nH]c(=O)n([C@H]2C[C@H](O)[C@@H](COP(=O)(O)O)O2)cc1-c1ccccc1 | 12.2 | 0.96 | –
3 | Cc1ccc(-c2cn([C@H]3C[C@H](O)[C@@H](COP(=O)(O)O)O3)c(=O)[nH]c2=O)cc1 | 8.3 | – | –
4 | COc1ccc(-c2cn([C@H]3C[C@H](O)[C@@H](COP(=O)(O)O)O3)c(=O)[nH]c2=O)cc1 | 33 | 1.21 | –
5 | Nc1ccc(-c2cn([C@H]3C[C@H](O)[C@@H](COP(=O)(O)O)O3)c(=O)[nH]c2=O)cc1 | 11.3 | 1.13 | –
6 | O=c1[nH]c(=O)n([C@H]2C[C@H](O)[C@@H](COP(=O)(O)O)O2)cc1-c1ccc(OCc2ccccc2)cc1 | 11.2 | – | –
7 | O=c1[nH]c(=O)n([C@H]2C[C@H](O)[C@@H](COP(=O)(O)O)O2)cc1-c1ccc(O)cc1 | 179 | 7.62 | 134
8 | CN(C)c1ccc(-c2cn([C@H]3C[C@H](O)[C@@H](COP(=O)(O)O)O3)c(=O)[nH]c2=O)cc1 | 48 | 1.41 | –
9 | N#Cc1ccc(-c2cn([C@H]3C[C@H](O)[C@@H](COP(=O)(O)O)O3)c(=O)[nH]c2=O)cc1 | 97.8 | 8.75 | 114
10 | O=c1[nH]c(=O)n([C@H]2C[C@H](O)[C@@H](COP(=O)(O)O)O2)cc1-c1ccc(C(F)(F)F)cc1 | 93.4 | 4.93 | –
11 | NC(=O)c1ccc(-c2cn([C@H]3C[C@H](O)[C@@H](COP(=O)(O)O)O3)c(=O)[nH]c2=O)cc1 | 113 | 5.67 | 119
12 | O=c1[nH]c(=O)n([C@H]2C[C@H](O)[C@@H](COP(=O)(O)O)O2)cc1-c1ccc(Br)cc1 | 29.2 | 1.81 | –
13 | COC(=O)c1ccc(-c2cn([C@H]3C[C@H](O)[C@@H](COP(=O)(O)O)O3)c(=O)[nH]c2=O)cc1 | 46.1 | 3.99 | 102
